Results: ChEMBL document CHEMBL1833947, “Synthesis and biological investigation of potential atypical antipsychotics with a tropane core. Part 1” (Eur J Med Chem, 2011)
Calls of active or inactive are those of the source. The rule behind the calls is not given here.

How the values were obtained:
[1] = system: Rattus norvegicus; assay: Induction of 5HT1A receptor in rat assesses as lower lip retractions at 0.1 mg/kg, iv after 15 mins (reference value: 0.1 +/- 0.1 retractions); type: functional
[2] = system: Rattus norvegicus; assay: Antipsychotic activity in 8-OH-DPAT-stimulated rat assessed as lower lip retractions at 0.1 mg/kg, iv administered 45 mins before 8-OH-DPAT challenge measured after 15 to 45 mins (reference value: 2.9 retractions); type: functional
[3] = system: Mus musculus; assay: Antidepressant-like activity in Swiss albino mouse assessed as immobilization time at 2 mg/kg, sc after 30 mins by forced swim test; type: functional; settings: route subcutaneous
[4] = system: Mus musculus; assay: Antidepressant-like activity in Swiss albino mouse assessed as immobilization time at 1 mg/kg, sc after 30 mins by forced swim test; type: functional; settings: route subcutaneous
[5] = species on record: Mus musculus; settings: Swiss albino, 5 mg/kg
Description: Hypothermic effect in Swiss albino mouse assessed as change in body temperature at 5 mg/kg, ip measured after 120 mins

[6] = system: Mus musculus; assay: Antipsychotic activity in mouse assessed as reversal of DOI-induced head twitches at 5 mg/kg, ip administered 30 mins before DOI challenge; type: functional; settings: route intraperitoneal
[7] = system: Mus musculus; assay: Antipsychotic activity in mouse assessed as reversal of DOI-induced head twitches at 20 mg/kg, ip administered 30 mins before DOI challenge; type: functional; settings: route intraperitoneal
[8] = molecular target: 5-hydroxytryptamine receptor 2A (Rattus norvegicus, UniProt P14842); assay: Displacement of [3H]ketanserin from 5HT2A in rat brain cerebral cortex after 20 mins by scintillation counting; type: tissue-based
[9] = species on record: Mus musculus; settings: Swiss albino, 10 mg/kg
Description: Hypothermic effect in Swiss albino mouse assessed as change in body temperature at 10 mg/kg, ip measured after 30 mins

[10] = system: Rattus norvegicus; assay: Induction of 5HT1A receptor in rat assesses as lower lip retractions at 20 mg/kg, iv after 15 mins (reference value: 0.1 +/- 0.1 retractions); type: functional
[11] = system: Rattus norvegicus; assay: Antipsychotic activity in 8-OH-DPAT-stimulated rat assessed as lower lip retractions at 10 mg/kg, iv administered 45 mins before 8-OH-DPAT challenge measured after 15 to 45 mins (reference value: 2.9 retractions); type: functional
[12] = system: Mus musculus; assay: Antipsychotic activity in mouse assessed as reversal of apomorphine-induced mesh climbing response at 50 mg/kg, ip administered 20 mins prior to apomorphine challenge measured after 40 mins
[13] = species on record: Mus musculus; settings: Swiss albino, 20 mg/kg
Description: Hypothermic effect in Swiss albino mouse assessed as change in body temperature at 20 mg/kg, ip measured after 45 mins in presence of 5 mg/kg, sc 8-OH-DPAT

[14] = system: Rattus norvegicus; assay: Induction of 5HT1A receptor in rat assesses as lower lip retractions at 10 mg/kg, iv after 15 mins (reference value: 0.1 +/- 0.1 retractions); type: functional
[15] = species on record: Mus musculus; settings: Swiss albino, 10 mg/kg; remark: listed apart in the source
Description: Hypothermic effect in Swiss albino mouse assessed as change in body temperature at 10 mg/kg, ip measured after 120 mins

[16] = species on record: Mus musculus; settings: Swiss albino, 20 mg/kg; remark: listed apart in the source
Description: Hypothermic effect in Swiss albino mouse assessed as change in body temperature at 20 mg/kg, ip measured after 30 mins in presence of 5 mg/kg, sc 8-OH-DPAT

[17] = species on record: Mus musculus; settings: Swiss albino, 10 mg/kg; remark: listed apart in the source
Description: Hypothermic effect in Swiss albino mouse assessed as change in body temperature at 10 mg/kg, ip measured after 60 mins

[18] = species on record: Mus musculus; settings: Swiss albino, 20 mg/kg; remark: listed apart in the source
Description: Hypothermic effect in Swiss albino mouse assessed as change in body temperature at 20 mg/kg, ip measured after 15 mins in presence of 5 mg/kg, sc 8-OH-DPAT

[19] = species on record: Mus musculus; settings: Swiss albino, 20 mg/kg; remark: listed apart in the source
Description: Hypothermic effect in Swiss albino mouse assessed as change in body temperature at 20 mg/kg, ip measured after 60 mins in presence of 5 mg/kg, sc 8-OH-DPAT

[20] = molecular target: D(2) dopamine receptor (Rattus norvegicus, UniProt P61169); assay: Displacement of [3H]spiperone from dopamine D2 receptor in rat striatum tissue after 20 mins by scintillation counting; type: tissue-based
[21] = species on record: Mus musculus; settings: Swiss albino, 5 mg/kg; remark: listed apart in the source
Description: Hypothermic effect in Swiss albino mouse assessed as change in body temperature at 5 mg/kg, ip measured after 90 mins

[22] = molecular target: T1, 5-hydroxytryptamine receptor 1A (Rattus norvegicus, UniProt P19327); assay: Displacement of [3H]8OH-DPAT from 5HT1A in rat brain cerebral cortex after 15 mins by scintillation counting; type: tissue-based
T1 sequence (P19327 whole entry): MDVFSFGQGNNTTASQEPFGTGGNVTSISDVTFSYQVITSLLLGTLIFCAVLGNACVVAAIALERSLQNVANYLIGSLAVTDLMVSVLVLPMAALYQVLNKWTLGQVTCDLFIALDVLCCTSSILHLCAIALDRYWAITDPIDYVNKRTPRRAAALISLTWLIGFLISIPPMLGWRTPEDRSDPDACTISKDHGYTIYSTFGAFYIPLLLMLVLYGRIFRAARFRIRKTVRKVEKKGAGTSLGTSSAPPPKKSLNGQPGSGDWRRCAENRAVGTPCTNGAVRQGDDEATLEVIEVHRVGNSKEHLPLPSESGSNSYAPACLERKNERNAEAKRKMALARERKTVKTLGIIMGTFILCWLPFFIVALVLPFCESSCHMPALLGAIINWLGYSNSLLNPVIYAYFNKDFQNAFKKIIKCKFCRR

[23] = species on record: Mus musculus; settings: Swiss albino, 20 mg/kg; remark: listed apart in the source
Description: Hypothermic effect in Swiss albino mouse assessed as change in body temperature at 20 mg/kg, ip measured after 60 mins

[24] = species on record: Mus musculus; settings: Swiss albino, 20 mg/kg; remark: listed apart in the source
Description: Hypothermic effect in Swiss albino mouse assessed as change in body temperature at 20 mg/kg, ip measured after 90 mins

[25] = species on record: Mus musculus; settings: Swiss albino, 10 mg/kg; remark: listed apart in the source
Description: Hypothermic effect in Swiss albino mouse assessed as change in body temperature at 10 mg/kg, ip measured after 90 mins

[26] = species on record: Mus musculus; settings: Swiss albino, 5 mg/kg; remark: listed apart in the source
Description: Hypothermic effect in Swiss albino mouse assessed as change in body temperature at 5 mg/kg, ip measured after 30 mins

[27] = species on record: Mus musculus; settings: Swiss albino, 5 mg/kg; remark: listed apart in the source
Description: Hypothermic effect in Swiss albino mouse assessed as change in body temperature at 5 mg/kg, ip measured after 60 mins

[28] = system: Rattus norvegicus; assay: Antipsychotic activity in 8-OH-DPAT-stimulated rat assessed as lower lip retractions at 20 mg/kg, iv administered 45 mins before 8-OH-DPAT challenge measured after 15 to 45 mins (reference value: 2.9 retractions); type: functional
[29] = species on record: Mus musculus; settings: Swiss albino, 20 mg/kg; remark: listed apart in the source
Description: Hypothermic effect in Swiss albino mouse assessed as change in body temperature at 20 mg/kg, ip measured after 120 mins

[30] = species on record: Mus musculus; settings: Swiss albino, 20 mg/kg; remark: listed apart in the source
Description: Hypothermic effect in Swiss albino mouse assessed as change in body temperature at 20 mg/kg, ip measured after 30 mins

[31] = system: Mus musculus; assay: Antipsychotic activity in mouse assessed as reversal of apomorphine-induced mesh climbing response at 50 mg/kg, ip administered 10 mins prior to apomorphine challenge measured after 30 mins; type: functional, organism-based; set-up: dose 50 mg/kg
[32] = system: Mus musculus; assay: Anxiolytic-like activity in mouse assessed as number of punished crossing at 10 mg/kg, ip after 6 mins by four-plate test (reference value: 554 +/- 46 crossings); type: functional; settings: route intraperitoneal
[33] = system: Mus musculus; assay: Antidepressant-like activity in Swiss albino mouse assessed as immobilization time at 10 mg/kg, ip after 30 mins by forced swim test; type: functional; settings: route intraperitoneal
[34] = system: Mus musculus; assay: Antidepressant-like activity in Swiss albino mouse assessed as immobilization time at 20 mg/kg, ip after 30 mins by forced swim test; type: functional, organism-based; set-up: dose 20 mg/kg
[35] = species on record: Mus musculus; settings: Swiss albino, 20 mg/kg; remark: listed apart in the source
Description: Hypothermic effect in Swiss albino mouse assessed as change in body temperature at 20 mg/kg, ip measured after 30 mins in presence of 0.1 mg/kg, sc 5-HT1A antagonist WAY 100635

[36] = species on record: Mus musculus; settings: Swiss albino, 20 mg/kg; remark: listed apart in the source
Description: Hypothermic effect in Swiss albino mouse assessed as change in body temperature at 20 mg/kg, ip measured after 60 mins in presence of 0.1 mg/kg, sc 5-HT1A antagonist WAY 100635

[37] = system: Mus musculus; assay: Anxiolytic-like activity in mouse assessed as number of punished crossing at 10 mg/kg, ip after 30 mins by four-plate test (reference value: 554 +/- 46 crossings); type: functional; settings: route intraperitoneal
[38] = species on record: Mus musculus; settings: Swiss albino, 2.5 mg/kg
Description: Hypothermic effect in Swiss albino mouse assessed as change in body temperature at 2.5 mg/kg, ip measured after 30 mins

[39] = species on record: Mus musculus; settings: Swiss albino, 2.5 mg/kg; remark: listed apart in the source
Description: Hypothermic effect in Swiss albino mouse assessed as change in body temperature at 2.5 mg/kg, ip measured after 60 mins

[40] = system: Mus musculus; assay: Antidepressant-like activity in Swiss albino mouse assessed as immobilization time at 2.5 mg/kg, ip after 30 mins by forced swim test; type: functional, organism-based; set-up: dose 2.5 mg/kg
[41] = system: Rattus norvegicus; assay: Antipsychotic activity in 8-OH-DPAT-stimulated rat assessed as lower lip retractions at 5 mg/kg, iv administered 45 mins before 8-OH-DPAT challenge measured after 15 to 45 mins (reference value: 2.9 retractions); type: functional
[42] = system: Rattus norvegicus; assay: Induction of 5HT1A receptor in rat assesses as lower lip retractions at 5 mg/kg, iv after 15 mins (reference value: 0.1 +/- 0.1 retractions); type: functional
[43] = system: Mus musculus; assay: Anxiolytic-like activity in mouse assessed as number of punished crossing at 5 mg/kg, ip after 30 mins by four-plate test (reference value: 1514 +/- 73 crossings); type: functional; settings: route intraperitoneal
[44] = system: Mus musculus; assay: Antipsychotic activity in mouse assessed as reversal of DOI-induced head twitches at 10 mg/kg, ip administered 30 mins before DOI challenge; type: functional; settings: route intraperitoneal
[45] = species on record: Mus musculus; settings: Swiss albino, 5 mg/kg; remark: listed apart in the source
Description: Hypothermic effect in Swiss albino mouse assessed as change in body temperature at 5 mg/kg, ip measured after 30 mins in presence of 0.1 mg/kg, sc 5-HT1A antagonist WAY 100635

[46] = system: Mus musculus; assay: Anxiolytic-like activity in mouse assessed as number of punished crossing at 5 mg/kg, ip after 6 mins by four-plate test (reference value: 1514 +/- 73 crossings); type: functional; settings: route intraperitoneal
[47] = species on record: Mus musculus; settings: Swiss albino, 2.5 mg/kg; remark: listed apart in the source
Description: Hypothermic effect in Swiss albino mouse assessed as change in body temperature at 2.5 mg/kg, ip measured after 90 mins

[48] = species on record: Mus musculus; settings: Swiss albino, 2.5 mg/kg; remark: listed apart in the source
Description: Hypothermic effect in Swiss albino mouse assessed as change in body temperature at 2.5 mg/kg, ip measured after 120 mins

[49] = species on record: Mus musculus; settings: Swiss albino, 5 mg/kg; remark: listed apart in the source
Description: Hypothermic effect in Swiss albino mouse assessed as change in body temperature at 5 mg/kg, ip measured after 60 mins in presence of 0.1 mg/kg, sc 5-HT1A antagonist WAY 100635

[50] = system: Mus musculus; assay: Antidepressant-like activity in Swiss albino mouse assessed as immobilization time at 5 mg/kg, ip after 30 mins by forced swim test; type: functional, organism-based; set-up: dose 5 mg/kg

Chain of 5-hydroxytryptamine receptor 2A (P14842 whole entry): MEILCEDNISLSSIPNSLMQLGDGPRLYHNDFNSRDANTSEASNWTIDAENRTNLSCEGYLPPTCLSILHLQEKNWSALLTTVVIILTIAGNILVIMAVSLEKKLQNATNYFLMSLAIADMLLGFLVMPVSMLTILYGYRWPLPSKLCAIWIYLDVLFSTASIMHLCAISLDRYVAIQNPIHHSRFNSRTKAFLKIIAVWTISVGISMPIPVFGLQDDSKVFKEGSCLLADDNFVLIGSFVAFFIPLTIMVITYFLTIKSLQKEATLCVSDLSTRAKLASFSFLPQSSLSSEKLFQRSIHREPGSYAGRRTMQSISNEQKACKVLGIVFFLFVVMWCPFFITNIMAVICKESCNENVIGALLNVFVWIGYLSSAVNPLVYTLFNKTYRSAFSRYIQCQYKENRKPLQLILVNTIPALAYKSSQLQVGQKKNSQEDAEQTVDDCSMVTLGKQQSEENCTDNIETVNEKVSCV
Chain of D(2) dopamine receptor (P61169 whole entry): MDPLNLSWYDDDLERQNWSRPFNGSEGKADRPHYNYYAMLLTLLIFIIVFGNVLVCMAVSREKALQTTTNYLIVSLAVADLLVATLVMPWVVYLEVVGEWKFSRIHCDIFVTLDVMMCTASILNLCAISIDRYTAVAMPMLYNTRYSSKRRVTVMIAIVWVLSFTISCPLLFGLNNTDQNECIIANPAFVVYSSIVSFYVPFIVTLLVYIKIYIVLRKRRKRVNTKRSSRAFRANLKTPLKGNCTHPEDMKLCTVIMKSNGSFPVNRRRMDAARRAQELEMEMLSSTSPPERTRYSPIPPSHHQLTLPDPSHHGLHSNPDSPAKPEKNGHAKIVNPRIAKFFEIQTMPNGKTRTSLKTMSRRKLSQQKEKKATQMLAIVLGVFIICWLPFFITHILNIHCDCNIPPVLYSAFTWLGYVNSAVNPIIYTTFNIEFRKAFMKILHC

## COc1ccccc1N1CCN(CCN(C(=O)C2CCCCC2)c2ccccn2)CC1.Cl.Cl.Cl
[1]
  Activity: 0
[2]
  Activity: 0.3

## Br.CCCN(CCC)C1CCc2cccc(O)c2C1 (stereo not drawn)
[3]
  Activity: 57%
[4]
  Activity: 45%

## COc1cc(N)c(Cl)cc1C(=O)N[C@@H]1CC2CC[C@H](C1)N2CC1CCCO1 (single isomer, unassigned)
[5]
  deltaT: 0 °C
[6]
  Activity: 63%
[7]
  Activity: 92%
[8]
  Ki: 6.2 nM
[9]
  deltaT: -0.2 °C
[10]
  Activity: 0.5
[11]
  Activity: 2.4
[12]
  Activity: Active
[13]
  deltaT: -1.6 °C
[14]
  Activity: 0.3
[15]
  deltaT: 0 °C
[16]
  deltaT: -2.9 °C
[17]
  deltaT: 0 °C
[18]
  deltaT: -2.9 °C
[19]
  deltaT: -0.6 °C
[20]
  Ki: 103 nM
[21]
  deltaT: 0 °C
[22]
  Ki: 5700 nM
[23]
  deltaT: -0.3 °C
[24]
  deltaT: -0.1 °C
[25]
  deltaT: -0.1 °C
[26]
  deltaT: -0.1 °C
[27]
  deltaT: -0.1 °C
[28]
  Activity: 2.4
[29]
  deltaT: -0.1 °C
[30]
  deltaT: -0.8 °C
[31]
  Activity: Active

## O=C(N[C@H]1CC2CC[C@H](C1)N2Cc1ccco1)c1ccc2ccccc2c1 (single isomer, unassigned)
[5]
  deltaT: 0.1 °C
[8]
  Ki: 24.1 nM
[10]
  Activity: 0.6
[11]
  Activity: 2.7
[32]
  Activity: 233
[33]
  Activity: 9%
[14]
  Activity: 0.1
[34]
  Activity: inactive
[20]
  Ki: 203 nM
[21]
  deltaT: 0.1 °C
[22]
  Ki: 2800 nM
[23]
  deltaT: -0.8 °C
[35]
  deltaT: -1.2 °C
[24]
  deltaT: -0.4 °C
[36]
  deltaT: -1.1 °C
[26]
  deltaT: -0.2 °C
[27]
  deltaT: 0.1 °C
[28]
  Activity: 2
[37]
  Activity: 566
[29]
  deltaT: -0.2 °C
[30]
  deltaT: -1.3 °C

## O=C(N[C@@H]1CC2CC[C@H](C1)N2Cc1ccccc1)c1ccc2ccccc2c1 (single isomer, unassigned)
[5]
  deltaT: -0.5 °C
[6]
  Activity: 81%
[38]
  deltaT: -0.2 °C
[7]
  Activity: 100%
[8]
  Ki: 2.5 nM
[39]
  deltaT: 0.1 °C
[10]
  Activity: 0.1
[11]
  Activity: 2.6
[40]
  Activity: inactive
[14]
  Activity: 0.2
[41]
  Activity: 2.7
[42]
  Activity: 0.1
[43]
  Activity: 321
[44]
  Activity: 95%
[45]
  deltaT: -1.3 °C
[46]
  Activity: 15
[47]
  deltaT: -0.1 °C
[20]
  Ki: 82.4 nM
[21]
  deltaT: -0.6 °C
[48]
  deltaT: 0 °C
[22]
  Ki: 304 nM
[49]
  deltaT: -0.9 °C
[26]
  deltaT: -1.5 °C
[27]
  deltaT: -0.9 °C
[28]
  Activity: 2.6
[50]
  Activity: inactive
